Results: ChEMBL document CHEMBL3045835, “Comparative study of conventional and microwave-assisted synthesis of some Schiff bases and their potential as antimicrobial agents” (2012)
Converted amounts (≈) assume the structure as drawn.

Key:
Assay type in all cases: functional
[1] = test system: Pseudomonas aeruginosa; assay: Antibacterial activity against Pseudomonas aeruginosa MTCC 424 after 24 hr by broth dilution method; settings: MTCC 424, 24 h
[2] = test system: Micrococcus luteus; assay: Antibacterial activity against Micrococcus luteus MTCC 1538 after 24 hr by broth dilution method; settings: MTCC 1538, 24 h
[3] = test system: Bacillus pumilus; assay: Antibacterial activity against Bacillus pumilus MTCC 1456 after 24 hr by broth dilution method; settings: MTCC 1456, 24 h
[4] = test system: Staphylococcus aureus; assay: Antibacterial activity against Staphylococcus aureus MTCC 1430 after 24 hr by broth dilution method; settings: MTCC 1430, 24 h
[5] = test system: Bacillus subtilis; assay: Antibacterial activity against Bacillus subtilis MTCC 441 after 24 hr by broth dilution method; settings: MTCC 441, 24 h
[6] = test system: Pseudomonas fluorescens; assay: Antibacterial activity against Pseudomonas fluorescens MTCC 2421 at 1000 ug/ml after 18 hr by cup-plate method; settings: MTCC 2421, 18 h, read-out: DIZ
[7] = test system: Pseudomonas fluorescens; assay: Antibacterial activity against Pseudomonas fluorescens MTCC 2421 at 1500 ug/ml after 18 hr by cup-plate method; settings: MTCC 2421, 18 h, read-out: DIZ
[8] = test system: Pseudomonas fluorescens; assay: Antibacterial activity against Pseudomonas fluorescens MTCC 2421 at 500 ug/ml after 18 hr by cup-plate method; settings: MTCC 2421, 18 h, read-out: DIZ
[9] = test system: Pseudomonas fluorescens; assay: Antibacterial activity against Pseudomonas fluorescens MTCC 2421 at 200 ug/ml after 18 hr by cup-plate method; settings: MTCC 2421, 18 h, read-out: DIZ
[10] = test system: Penicillium chrysogenum; assay: Antifungal activity against Penicillium chrysogenum MTCC 161 at 1500 ug/ml after 18 hr by cup-plate method; settings: MTCC 161, 18 h, read-out: DIZ
[11] = test system: Penicillium chrysogenum; assay: Antifungal activity against Penicillium chrysogenum MTCC 161 at 1000 ug/ml after 18 hr by cup-plate method; settings: MTCC 161, 18 h, read-out: DIZ
[12] = test system: Penicillium chrysogenum; assay: Antifungal activity against Penicillium chrysogenum MTCC 161 at 500 ug/ml after 18 hr by cup-plate method; settings: MTCC 161, 18 h, read-out: DIZ
[13] = test system: Penicillium chrysogenum; assay: Antifungal activity against Penicillium chrysogenum MTCC 161 at 200 ug/ml after 18 hr by cup-plate method; settings: MTCC 161, 18 h, read-out: DIZ
[14] = test system: Penicillium chrysogenum; assay: Antifungal activity against Penicillium chrysogenum MTCC 161 at 100 ug/ml after 18 hr by cup-plate method; settings: MTCC 161, 18 h, read-out: DIZ
[15] = test system: Aspergillus niger; assay: Antifungal activity against Aspergillus niger MTCC 2546 at 1000 ug/ml after 18 hr by cup-plate method; settings: MTCC 2546, 18 h, read-out: DIZ
[16] = test system: Aspergillus niger; assay: Antifungal activity against Aspergillus niger MTCC 2546 at 1500 ug/ml after 18 hr by cup-plate method; settings: MTCC 2546, 18 h, read-out: DIZ
[17] = test system: Aspergillus niger; assay: Antifungal activity against Aspergillus niger MTCC 2546 at 500 ug/ml after 18 hr by cup-plate method; settings: MTCC 2546, 18 h, read-out: DIZ
[18] = test system: Aspergillus niger; assay: Antifungal activity against Aspergillus niger MTCC 2546 at 100 ug/ml after 18 hr by cup-plate method; settings: MTCC 2546, 18 h, read-out: DIZ
[19] = test system: Aspergillus niger; assay: Antifungal activity against Aspergillus niger MTCC 2546 at 200 ug/ml after 18 hr by cup-plate method; settings: MTCC 2546, 18 h, read-out: DIZ
[20] = test system: Escherichia coli; assay: Antibacterial activity against Escherichia coli MTCC 1573 at 1500 ug/ml after 18 hr by cup-plate method; settings: MTCC 1573, 18 h, read-out: DIZ
[21] = test system: Escherichia coli; assay: Antibacterial activity against Escherichia coli MTCC 1573 at 500 ug/ml after 18 hr by cup-plate method; settings: MTCC 1573, 18 h, read-out: DIZ
[22] = test system: Escherichia coli; assay: Antibacterial activity against Escherichia coli MTCC 1573 at 1000 ug/ml after 18 hr by cup-plate method; settings: MTCC 1573, 18 h, read-out: DIZ
[23] = test system: Escherichia coli; assay: Antibacterial activity against Escherichia coli MTCC 1573 at 200 ug/ml after 18 hr by cup-plate method; settings: MTCC 1573, 18 h, read-out: DIZ
[24] = test system: Escherichia coli; assay: Antibacterial activity against Escherichia coli MTCC 1573 at 100 ug/ml after 18 hr by cup-plate method; settings: MTCC 1573, 18 h, read-out: DIZ
[25] = test system: Pseudomonas fluorescens; assay: Antibacterial activity against Pseudomonas fluorescens MTCC 2421 at 100 ug/ml after 18 hr by cup-plate method; settings: MTCC 2421, 18 h, read-out: DIZ
[26] = test system: Pseudomonas aeruginosa; assay: Antibacterial activity against Pseudomonas aeruginosa MTCC 424 at 1500 ug/ml after 18 hr by cup-plate method; settings: MTCC 424, 18 h, read-out: DIZ
[27] = test system: Pseudomonas aeruginosa; assay: Antibacterial activity against Pseudomonas aeruginosa MTCC 424 at 1000 ug/ml after 18 hr by cup-plate method; settings: MTCC 424, 18 h, read-out: DIZ

`Cc1cccnc1/N=C/c1cccc2ccccc12` gave an MIC [1] of 300 µg/mL (≈ 1220 µM), an MIC [2] of 200 µg/mL (≈ 812 µM) and an MIC [3] of 200 µg/mL (≈ 812 µM). For the same molecule, the MIC [4] was 400 µg/mL (≈ 1620 µM), the MIC [5] was 50 µg/mL (≈ 203 µM) and the zone of inhibition at 1000 µg/mL [6] was 23 mm. The zone of inhibition at 1500 µg/mL [7] was 24 mm, the zone of inhibition at 500 µg/mL [8] was 22 mm and the zone of inhibition at 200 µg/mL [9] was 20 mm. It also gave a zone of inhibition at 1500 µg/mL [10] of 18 mm, a zone of inhibition at 1000 µg/mL [11] of 17 mm and a zone of inhibition at 500 µg/mL [12] of 15 mm. The zone of inhibition at 200 µg/mL [13] was 13 mm, the zone of inhibition at 100 µg/mL [14] was 11 mm and the zone of inhibition at 1000 µg/mL [15] was 20 mm. The zone of inhibition at 1500 µg/mL [16] was 21 mm, the zone of inhibition at 500 µg/mL [17] was 19 mm and the zone of inhibition at 100 µg/mL [18] was 13 mm. It also gave a zone of inhibition at 200 µg/mL [19] of 16 mm, a zone of inhibition at 1500 µg/mL [20] of 19 mm and a zone of inhibition at 500 µg/mL [21] of 15 mm. It also gave a zone of inhibition at 1000 µg/mL [22] of 16 mm, a zone of inhibition at 200 µg/mL [23] of 14 mm and a zone of inhibition at 100 µg/mL [24] of 13 mm. The zone of inhibition at 100 µg/mL [25] was 17 mm, the zone of inhibition at 1500 µg/mL [26] was 18 mm and the zone of inhibition at 1000 µg/mL [27] was 16 mm.
